{
  "source": "PubChem BioAssay (NCI)",
  "experiment_in_all_cases": "inhibition of tumour cell growth, NCI panel, 48 h",
  "key": {"[1]": {"test_system": "HCT-116 colon"}, "[2]": {"test_system": "SK-MEL-28 melanoma"}, "[3]": {"test_system": "T-47D breast"}, "[4]": {"test_system": "SNB-75 CNS"}, "[5]": {"test_system": "MCF7 breast"}, "[6]": {"test_system": "EKVX NSCLC"}, "[7]": {"test_system": "K-562 leukemia"}, "[8]": {"test_system": "ACHN renal"}, "[9]": {"test_system": "MALME-3M melanoma"}, "[10]": {"test_system": "DU-145 prostate"}, "[11]": {"test_system": "PC-3 prostate"}, "[12]": {"test_system": "MDA-MB-435"}, "[13]": {"test_system": "KM12 colon"}, "[14]": {"test_system": "UO-31 renal"}, "[15]": {"test_system": "HS 578T breast"}, "[16]": {"test_system": "SNB-19 CNS"}, "[17]": {"test_system": "NCI-H23 lung"}, "[18]": {"test_system": "U251 CNS"}, "[19]": {"test_system": "HCT-15 colon"}, "[20]": {"test_system": "HOP-92 NSCLC"}, "[21]": {"test_system": "RPMI-8226 leukemia"}, "[22]": {"test_system": "A498 renal"}, "[23]": {"test_system": "OVCAR-8 ovarian"}, "[24]": {"test_system": "HOP-62 NSCLC"}, "[25]": {"test_system": "NCI-H522 lung"}, "[26]": {"test_system": "NCI/ADR-RES ovarian"}, "[27]": {"test_system": "SF-268 CNS"}, "[28]": {"test_system": "SW-620 colon"}, "[29]": {"test_system": "SN12C renal"}},
  "note": "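Test compounds were applied to cells in 96-well plates for 48 hours at 5 doses. GI50 is the concentration that inhibits growth by half. TGI denotes the concentration required for complete inhibition of growth.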",
  "data": [
    {"smiles": "CN1CCN(c2ccc(Nc3nc(NCCCNS(=O)(=O)c4cccc(F)c4)c4sccc4n3)cc2)CC1", "values": [
      {"measurement": "GI50", "setting": "[1]", "result": 3.73, "unit": "µM"},
      {"measurement": "TGI", "setting": "[1]", "result": 16.4, "unit": "µM"},
      {"measurement": "GI50", "setting": "[2]", "result": 1.61, "unit": "µM"},
      {"measurement": "TGI", "setting": "[2]", "result": 3.08, "unit": "µM"},
      {"measurement": "GI50", "setting": "[3]", "result": 10.9, "unit": "µM"},
      {"measurement": "TGI", "setting": "[3]", "result": 31.1, "unit": "µM"},
      {"measurement": "GI50", "setting": "[4]", "result": 11.5, "unit": "µM"},
      {"measurement": "TGI", "setting": "[4]", "result": 23.9, "unit": "µM"},
      {"measurement": "GI50", "setting": "[5]", "result": 3.52, "unit": "µM"},
      {"measurement": "TGI", "setting": "[5]", "result": 14.3, "unit": "µM"},
      {"measurement": "GI50", "setting": "[6]", "result": 9.48, "unit": "µM"},
      {"measurement": "TGI", "setting": "[6]", "result": 21.3, "unit": "µM"},
      {"measurement": "GI50", "setting": "[7]", "result": 1.43, "unit": "µM"},
      {"measurement": "TGI", "setting": "[7]", "result": 9.8, "unit": "µM"},
      {"measurement": "GI50", "setting": "[8]", "result": 4.49, "unit": "µM"},
      {"measurement": "TGI", "setting": "[8]", "result": 16.2, "unit": "µM"},
      {"measurement": "GI50", "setting": "[9]", "result": 1.8, "unit": "µM"},
      {"measurement": "TGI", "setting": "[9]", "result": 3.25, "unit": "µM"},
      {"measurement": "GI50", "setting": "[10]", "result": 10.5, "unit": "µM"},
      {"measurement": "TGI", "setting": "[10]", "result": 23, "unit": "µM"},
      {"measurement": "GI50", "setting": "[11]", "result": 6.87, "unit": "µM"},
      {"measurement": "TGI", "setting": "[11]", "result": 25.1, "unit": "µM"},
      {"measurement": "GI50", "setting": "[12]", "result": 3.01, "unit": "µM"},
      {"measurement": "TGI", "setting": "[12]", "result": 11.3, "unit": "µM"},
      {"measurement": "GI50", "setting": "[13]", "result": 10.8, "unit": "µM"},
      {"measurement": "TGI", "setting": "[13]", "result": 40.5, "unit": "µM"},
      {"measurement": "GI50", "setting": "[14]", "result": 10.1, "unit": "µM"},
      {"measurement": "TGI", "setting": "[14]", "result": 21.7, "unit": "µM"},
      {"measurement": "GI50", "setting": "[15]", "result": 3.72, "unit": "µM"},
      {"measurement": "TGI", "setting": "[15]", "result": 34.4, "unit": "µM"},
      {"measurement": "GI50", "setting": "[16]", "result": 7.7, "unit": "µM"},
      {"measurement": "TGI", "setting": "[16]", "result": 20.2, "unit": "µM"},
      {"measurement": "GI50", "setting": "[17]", "result": 11.7, "unit": "µM"},
      {"measurement": "TGI", "setting": "[17]", "result": 25.7, "unit": "µM"},
      {"measurement": "GI50", "setting": "[18]", "result": 3.31, "unit": "µM"},
      {"measurement": "TGI", "setting": "[18]", "result": 13.5, "unit": "µM"},
      {"measurement": "GI50", "setting": "[19]", "result": 2.18, "unit": "µM"},
      {"measurement": "TGI", "setting": "[19]", "result": 6.88, "unit": "µM"},
      {"measurement": "GI50", "setting": "[20]", "result": 3.37, "unit": "µM"},
      {"measurement": "TGI", "setting": "[20]", "result": 17.1, "unit": "µM"},
      {"measurement": "GI50", "setting": "[21]", "result": 2.85, "unit": "µM"},
      {"measurement": "TGI", "setting": "[21]", "result": 13.9, "unit": "µM"},
      {"measurement": "GI50", "setting": "[22]", "result": 10.9, "unit": "µM"},
      {"measurement": "TGI", "setting": "[22]", "result": 23, "unit": "µM"},
      {"measurement": "GI50", "setting": "[23]", "result": 5.67, "unit": "µM"},
      {"measurement": "TGI", "setting": "[23]", "result": 23.2, "unit": "µM"},
      {"measurement": "GI50", "setting": "[24]", "result": 14.8, "unit": "µM"},
      {"measurement": "TGI", "setting": "[24]", "result": 29, "unit": "µM"},
      {"measurement": "GI50", "setting": "[25]", "result": 3.2, "unit": "µM"},
      {"measurement": "TGI", "setting": "[25]", "result": 14.1, "unit": "µM"},
      {"measurement": "GI50", "setting": "[26]", "result": 13.9, "unit": "µM"},
      {"measurement": "TGI", "setting": "[26]", "result": 38.5, "unit": "µM"},
      {"measurement": "GI50", "setting": "[27]", "result": 6.41, "unit": "µM"},
      {"measurement": "TGI", "setting": "[27]", "result": 24.9, "unit": "µM"},
      {"measurement": "GI50", "setting": "[28]", "result": 4.12, "unit": "µM"},
      {"measurement": "TGI", "setting": "[28]", "result": 17.2, "unit": "µM"},
      {"measurement": "GI50", "setting": "[29]", "result": 11.5, "unit": "µM"}
    ]}
  ]
}
